Experimental data taken from patent US20240269291A1, “Transcutol-Polyol-Active Agent Ternary Complex, Pharmaceutical Composition for Topical Use Comprising Same, Method for Obtaining Same and Use Thereof in Different Pathologies” (FUNDACIÓN GAIKER, priority 2021, published 2024).

Assays:
sick people = experiment: Application of the cream on sick people; conditions: in vivo
Protocol: In the numerous tests that were carried out on sick people, it has been observed that the introduction of a correct concentration of polyphenols (with “correct” being understood as the fact that there are 200 mg of the polyphenol in each 5 g application of pharmaceutical composition) in a solution for topical use (preferably a cream) has very beneficial effects in treating at least the following pathologies: subcutaneous inflammations such as fasciitis and fasciosis, tendon inflammation or irritation (tendonitis), carpal tunnel inflammation, varicose vein reduction, joint inflammation and blows and bruises.

[1] = safety index of 100 times, cited from earlier work
[2] = printed as negative log P; cited from earlier work

Row | Compound | crossing of the blood-brain barrier (sick people) | recommended limit via the dermal route ([1]; dermal route) [mg/kg] | recommended limit via the oral route ([1]; oral route) [mg/kg] | log P [2]
1 | C[C@@H]1O[C@@H](OC[C@H]2O[C@@H](Oc3c(-c4ccc(O)c(O)c4)oc4cc(O)cc(O)c4c3=O)[C@H](O)[C@@H](O)[C@@H]2O)[C@H](O)[C@H](O)[C@H]1O [rutin] | able to cross the blood-brain barrier |  |  | 
2 | CCOCCOCCO [transcutol, 2-(2-Ethoxyethoxy) ethanol] |  | 20 | 10 | ~0.5
